In publication PMC8297954 (Frontiers in Microbiology, 2021):
“Also recorded” adds a separate entry of the source. Where two headings read alike, the source gives them in different places.

Legend:
[1] = system: viral protein U of human immunodeficiency type 1 virus; conditions: cited from earlier work
HCoV-229E E protein = conditions: cited from earlier work
MHV E protein = conditions: cited from earlier work
HCoV-229E = conditions: cited from earlier work
MHV = conditions: cited from earlier work
[2] = system: transmembrane domain of SARS CoV E protein; conditions: lipid bilayers ref Torres et al., 2007; cited from earlier work
SARS CoV 3a protein = conditions: Xenopus oocytes ref Schwarz et al., 2014; cited from earlier work

| Molecule | effect on viability of control cells at increasing concentrations (HEK293 cells) | MTT pRK control (HEK293 cells; human) | inhibition of viral protein U [1] | also measured |
| --- | --- | --- | --- | --- |
| Oc1ccc(/C=C/c2cc(O)cc(O)c2)cc1 [Resveratrol, resveratrol] | – | – | – | MTT pRK control (HEK293 cells): neutral |
| CC(N)C12CC3CC(CC(C3)C1)C2 (stereo not shown) [Rimantadine, rimantadine, reference compound] | – | – | – | MTT pRK control (HEK293 cells): neutral |
| O=c1cc(-c2ccc(O)cc2)oc2cc(O)cc(O)c12 [Apigenin, apigenin] | cytotoxic | 5–10↑ 20–50↓ | – | concentrations that were cytotoxic / induced cell death (HEK293 cells; human): 20 to 50 µM |
| O=c1c(-c2ccc(O)cc2)coc2cc(O)cc(O)c12 [Genistein, genistein] | proliferative | 20–50 ↑ | inhibits; also recorded: able to inhibit | – |
| NC(N)=NC(=O)c1nc(Cl)c(N2CCCCCC2)nc1N [HMA, 5-(N,N-hexamethylene)amiloride] | cytotoxic | 10–50 ↓ | – | inhibition of E protein ion channel conductance (HCoV-229E E protein): inhibits; inhibition of E protein ion channel conductance (MHV E protein): inhibits; inhibition of virus replication (HCoV-229E): inhibits replication; inhibition of virus replication (MHV): inhibits replication |
| O=C1C[C@@H](c2ccc(O)cc2)Oc2cc(O)cc(O)c21 [Naringenin, naringenin] | – | 10–50 ↑ | – | – |
| O=c1c(O)c(-c2ccc(O)c(O)c2)oc2cc(O)cc(O)c12 [Quercetin, quercetin] | proliferative | 10–50 ↑ | not | – |
| CCCCC[C@H](O)CC(=O)CCc1ccc(O)c(OC)c1 [6-Gingerol, 6-gingerol] | – | – | – | MTT pRK control (HEK293 cells): neutral |
| NC12CC3CC(CC(C3)C1)C2 [Amantadine, amantadine, reference compound] | – | – | – | MTT pRK control (HEK293 cells): neutral; inhibition of wild-type transmembrane peptides [2]: inhibited |
| COc1ccc(-c2cc(=O)c3c(OC)c(OC)c(OC)c(OC)c3o2)cc1OC [Nobiletin, nobiletin] | – | 5–50 ↑ | – | – |
| O=c1c(O)c(-c2ccc(O)cc2)oc2cc(O)cc(O)c12 [Kaempferol, kaempferol] | proliferative | 5–50 ↑ | not | inhibition of 3a ion channel (SARS CoV 3a protein): blocks |
| O=C(O[C@@H]1Cc2c(O)cc(O)cc2O[C@@H]1c1cc(O)c(O)c(O)c1)c1cc(O)c(O)c(O)c1 [EGCG, epigallocatechin gallate] | – | 5–50 ↑ | – | – |
| (–)epigallocatechin | – | – | not | – |
| (–)epicatechin | – | – | not | – |
| CCCCCCC[C@H](O)CC(=O)CCc1ccc(O)c(OC)c1 [8-Gingerol, 8-gingerol] | – | 50 ↓ | – | – |
| O=c1c(O[C@@H]2O[C@@H](CO)[C@H](O)[C@H]2O)c(-c2ccc(O)cc2)oc2cc(O)cc(O)c12 [juglanin] | – | – | – | inhibition of 3a ion channel (SARS CoV 3a protein): most efficient |
